Source: article PMC9016803, “Mitochondria-targeted half-sandwich iridium(III)-Cp*-arylimidazophenanthroline complexes as antiproliferative and bioimaging agents against triple negative breast cancer cells MDA-MB-468” (RSC Advances, 2022)
pIC50: −log10 of the molar value. Where “and” joins values, the source holds several entries; their conditions need not be identical. Equal values may be shown once.

Tests used:
[1] = tested on: MDA-MB-468 cells; assay: MTT in vitro cytotoxicity assay, triple negative breast cancer cells; assay type: cell-based; conditions: MDA-MB-468, MTT, 48 h
Description: The in vitro cytotoxicity of complexes IrL1–IrL5 and cisplatin were investigated using the typical 3-(4,5-dimethylthiazol-2-yl)-2,5-diphenyltetrazolium bromide (MTT) assay protocol against a panel of triple negative cancer cell line MDA-MB-468. The cells were initially incubated with the all test compounds at concentrations ranging from 0.5–50 μM for 48 h in vitro.
Cytotoxicity study of all the synthesized compounds against triple negative breast cancer cells MDA-MB-468 and immortalized human keratinocyte cell line HaCaT were done with a drug incubation period of 48 h by following standard procedure that were mentioned in ESI. ^† Preliminary studies were done to understand the mode of action of the complex to induce cytotoxicity using flow cytometric methods.
For doing the cell culture the cells were retained in DMEM media (Gibco), added with 10% fetal bovine serum (Himedia, India), 1% penicillin and streptomycin and 1% of Glutmax (Gibco, Thermo Scientific, USA) at 37°C in 5% CO2. When the cells attained 70%-80% confluency they were trypsinized using 0.25% trypsin-EDTA (Thermo Fisher Scientific, […]
In vitro cytotoxicity study was measured by standard MTT assay protocol.1 First the prepared complexes (IrL1-IrL5) were dissolved in 0.1% DMSO followed by dilution with DMEM medium. One cancer cell lines i.e. triple negative breast cancer cells (MDA-MB-468) and one normal cell line i.e. immortalized human keratinocyte cell line (HaCaT) were used for this assay. Approximately 1×10^4 cells per well were cultured in 100 μl of a growth medium in 96-well plates and then incubated under 5% CO2 atmosphere at 37°C temperature. Then the incubated cells were treated with different concentrations of the complexes in the volume of […]. The cisplatin was taken as standard positive control for this experiment. The Cells which were in the control wells, also engaged the same volume of medium containing 0.1% DMSO. After 48 h, the medium was superfluous and cell cultures were again incubated with 100 μL of MTT reagent (1 mg/ml) for 5 h at 37 °C. Then the resultant suspension was kept on micro vibrator for 10 min and the absorbance was recorded at λ = 570 nm in ELISA plate reader. The experiment was also performed in triplicate. The data were represented as the growth inhibition percentage i.e. % growth inhibition = 100 − [(AD × 100)/AB], where AD, measured absorbance in wells which contain samples and AB, measured absorbance for blank wells (cells with a medium and a vehicle). […]

[2] = tested on: CT-DNA; assay: DNA binding by UV-visible absorption titration; parameters: species or system calf; conditions: for Change in absorbance: on addition of CT-DNA
Description: To design effective chemotherapeutic drugs, it is essential to explore the interactions of metal complexes with DNA. […] DNA base pairs such as purine (adenine and guanine) and pyrimidine (cytosine and thymine) analogues are responsible for electronic transitions. Upon the addition of CT-DNA in increasing concentration from 5 μM to 60 μM, we observed a hyperchromic shift in π–π* region and hypochromic shift at the MLCT region resulting in the appearance of an isosbestic point, which indicates the prevalence of […] interaction of the complex with DNA together with the intercalative mode of interaction (Fig. 6).
Electronic absorption spectroscopy was used to study the binding capacity of the complexes with calf-thymus DNA (Ct-DNA) and competitive binding assay as studied using ethidium bromide (EtBr) as quencher by fluorescence spectroscopy.
DNA binding assay was carried out by using complexes IrL5 in Tris-HCl buffer (5 mM Tris-HCl in water, pH 7.4) in aqueous medium. The concentration of Ct-DNA was calculated from its absorbance intensity at 260 nm and its known molar absorption coefficient value of 6600 M-1cm-1. Equal amount of DNA was added in both the sample and reference in cuvettes.
Titration was carried out by increasing concentration of CT-DNA. On the eve of each measurement, sample was equilibrated with CT-DNA for about 5 min and then absorbance of the complex was measured. The intrinsic DNA binding constant (K b) was calculated using the […]
[DNA] = [DNA] + 1 L L (i) […]
Where [DNA] is the concentration of DNA in the base pairs, εa is the apparent extinction coefficient observed for the complex, εf corresponds to the extinction coefficient of the complex in its free form, and εb refers to the extinction coefficient of the complex when fully bound to DNA. The resultant data were plotted using Origin Lab, version 8.5 to obtain the [DNA]/(ε a-εf) vs. [DNA] linear plot. The ratio of the slope to intercept from the linear fit gave the values of the intrinsic binding constants ( Kb).
UV and Fluorescence study […]
φ = φR × I × OD × η ⋯⋯⋯(ii)

[3] = tested on: CT-DNA; assay: Ethidium bromide displacement (fluorescence quenching) assay; assay type: binding, calf
Description: The competitive binding of compounds IrL1 to CT-DNA was studied via fluorescence spectroscopy using ethidium bromide (EtBr) as the fluorophore. […] Intrinsic binding constant (Kb), Stern–Volmer quenching constant (Ksv) and apparent binding constant (Kapp) were highlighted in Table 2. […]
Ethidium bromide displacement assay
The ethidium bromide (EtBr) displacement assay was carried out to illustrate the mode of binding between the potent compounds with DNA.4 The apparent binding constant (K app) of the complexe IrL1 to Ct-DNA were calculated using ethidium bromide (EtBr) as a spectral probe in 5 mM Tris-HCl buffer (pH 7.4). The values of the apparent binding constant (K app) were obtained by using the equation (iii):
Kapp × [Complex]50 = kEtBr × [EtBr]⋯⋯⋯(iii)
Where KEtBr is the EtBr binding constant (K EtBr = 1.0 x 107 M-1), and [EtBr] = 8 x 10^-6 M.
Stern-Volmer equation was followed for quantitative determination of the Stern-Volmer quenching constant (K SV).5 Origin (8.5) software was used to plot the fluorescence data to obtain linear plot of I0/I vs. [complex]. The value of KSV was calculated from the following […]
Where I0 = fluorescence intensity in absence of complex and I = fluorescence intensities in presence of complex of concentration [Q].
We are acquainted with the fact that serum albumin proteins are the main component. […]

[4] = tested on: MDA-MB-468 cells; assay: Annexin V-FITC/PI apoptosis assay; assay type: cell-based; conditions: 3 μM

“[Iridium(III)-Cp*-2-(naphthalen-1-yl)-1H-imidazo[4,5-f][1,10]phenanthroline]PF6 [IrL1]” was tested, and the pIC50 [1] was 5.43 and 5.44, the “Δε (% change in hypochromism or hyperchromism)” value ([2]; λmax 250 nm, hyperchromism) was 60% and the Change in absorbance ([2]; λmax 250 nm) was “Hyperchromism”. For the same substance, the “Δε (% change in hypochromism or hyperchromism)” value ([2]; λmax 305 nm, hypochromism) was 25%, the Change in absorbance ([2]; λmax 305 nm) was “Hypochromism” and the “Ksv, Stern–Volmer quenching constant” value ([3]; EtBr-bound CT-DNA) was 22000 M⁻¹. The “Kapp, apparent DNA binding constant” value ([3]; competitive displacement of EtBr) was 2500 M⁻¹, the early apoptotic cells [4] was roughly 34.89% and the viable cell population [4] was roughly 51.37%.
